Measured values reported in patent US6268478A, “Intracellular vitamin D binding protein” (Cedars-Sinai Medical Center, priority 1997, dated 2001).

Biological target: IDBP (Saguinus oedipus, UniProt Q9N1U2)
Test: Competitive displacement of [3H]25-OHD3 from IDBP in unfractionated 100,000×g supernatant extracts of B95-8 cells (competitive protein binding assay, dextran-coated charcoal)
Parameters: post-nuclear 100,000xg supernatant of B95-8 marmoset lymphoblasts and partly purified column fractions; species or system Callithrix jacchus (common marmoset)
Conditions: 100 nM competitor; 2 nM [3H]25-OHD3
Excerpt: Culture and Extraction of B95-8 Cells. The B-lymphoblastoid cell line B95-8 was obtained from the American Type Culture Collection (ATCC, Manassas, Va.). This cell line was established by EBV transformation of blood leukocytes from the vitamin D-resistant new world primate, Callithrix jacchus (common marmoset). The cell line was maintained in RPMI-1640 medium (Irvine Scientific, Irvine, Calif.) routinely supplemented with 10% fetal calf serum (FCS; Gemini BioProducts, Calabasas, Calif.), 100 units/ml penicillin, 100 μg/ml streptomycin, 2 mM L-glutamine (both from Gibco-BRL, Grand Island, N.Y.) in an atmosphere of 95% air-5% CO2.
Confluent cultures were harvested by agitation to dislodge clumps of lymphoblasts that were weakly adherent to the plastic flask. Harvested cells were pelleted and washed twice in ice cold phosphate-buffered saline (PBS; 20 mM Na2 HPO4 and 150 mM NaCl, pH 7.2). The pelleted cells were then resuspended in ETD buffer (1 mM EDTA, 10 mM Tris-HCl, 5 mM dithiothreitol, pH 7.4) containing 1 mM phenylmethylsulfonylflouride and homogenized by Polytron on ice in five 15-second bursts. Nuclei with associated nuclear steroid receptor proteins, were pelleted at 4,000×g for 30 minutes at 4° C. The post-nuclear supernatant of this spin was then subjected to high-speed centrifugation at 100,000×g for 1 hour at 4° C. The resulting "100,000×g supernatant" was either aliquoted and stored at […] for further study, used in competitive ligand binding analyses, or subjected to further purification as described below in Example II.
Ligand Binding Analyses. The ability of the unfractionated 100,000×g supernatant extracts of B95-8 cells and individual column […] of increasing concentrations of radioinert compounds (see Table I) was performed by competitive protein binding assay as previously described in Gacad et al. Bone Min. Res. 8:27-35 (1993).
[…] […] […] […] The binding assay conditions were the same as those stated above except that specific binding was determined in ETD-0.3 M Na2 HPO4 buffer (pH 6.8).

IDBP, sequence (Q9N1U2 whole entry): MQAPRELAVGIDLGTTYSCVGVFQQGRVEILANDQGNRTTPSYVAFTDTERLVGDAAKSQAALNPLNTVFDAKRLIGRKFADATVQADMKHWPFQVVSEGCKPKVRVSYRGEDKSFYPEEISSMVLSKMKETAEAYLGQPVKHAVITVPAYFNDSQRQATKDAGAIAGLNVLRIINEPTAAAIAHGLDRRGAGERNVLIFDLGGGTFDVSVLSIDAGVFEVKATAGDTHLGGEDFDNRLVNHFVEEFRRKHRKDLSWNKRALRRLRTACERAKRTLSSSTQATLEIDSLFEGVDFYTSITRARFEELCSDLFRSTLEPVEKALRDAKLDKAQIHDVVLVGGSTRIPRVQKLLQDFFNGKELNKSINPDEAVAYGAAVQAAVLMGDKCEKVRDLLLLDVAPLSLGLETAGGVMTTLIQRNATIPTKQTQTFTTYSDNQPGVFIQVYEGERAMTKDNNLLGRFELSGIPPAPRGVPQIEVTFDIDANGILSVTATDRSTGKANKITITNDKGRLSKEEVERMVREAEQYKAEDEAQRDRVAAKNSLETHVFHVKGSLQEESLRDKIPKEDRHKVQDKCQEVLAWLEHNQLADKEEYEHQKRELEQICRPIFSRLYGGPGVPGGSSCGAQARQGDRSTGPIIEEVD

| Molecule | ability to competitively displace [3H]25-OHD3 binding (FIG. 1A) |
| --- | --- |
| C=C1/C(=C\C=C2/CCC[C@]3(C)[C@@H]([C@H](C)CCC(O)C(C)(C)O)CC[C@@H]23)C[C@@H](O)CC1O (stereo partly shown) [1,24,25-(OH)3D3] | significantly decreased effective competitive binding |
| C=C1/C(=C\C=C2/CCC[C@]3(C)[C@@H]([C@H](C)CCCC(C)C)CC[C@@H]23)C[C@@H](O)C[C@@H]1O [1-OHD3] | incapable of displacing [^3 H]25-OHD3 |
| C=C1CC[C@H](O)C/C1=C/C=C1\CCC[C@]2(C)[C@@H]([C@H](C)CCC(O)C(C)(C)O)CC[C@@H]12 (stereo partly shown) [24,25-(OH)2D3] | roughly equivalent in their ability to competitively inhibit |
| C=C1CC[C@H](O)C/C1=C/C=C1\CCC[C@]2(C)[C@@H]([C@H](C)CCCC(C)(O)CO)CC[C@@H]12 (stereo partly shown) [25,26-(OH)2D3] | roughly equivalent in their ability to competitively inhibit |
| CC(C)[C@@H](C)/C=C/[C@@H](C)[C@H]1CC[C@H]2/C(=C/C=C3\C[C@@H](O)CC[C@@H]3C)CCC[C@]12C [Dihydrotachysterol] | incapable of displacing [^3 H]25-OHD3 |
| C=C1CC[C@H](O)C/C1=C/C=C1\CCC[C@]2(C)[C@@H]([C@H](C)CCCC(C)C)CC[C@@H]12 [Vltamin D3, cholecalciferol] | ineffective as a competitive ligand |

Same assay, conditions: competitor at 10^-7 M; 0.1 µM

| Molecule | displacement of 25-OHD3 |
| --- | --- |
| C=C1/C(=C\C=C2/CCC[C@]3(C)[C@@H]([C@H](C)CCC(O)C(C)(C)O)CC[C@@H]23)C[C@@H](O)CC1O (stereo partly shown) [1,24,25-(OH)3D3] | 20% |

Same assay, conditions: competitor concentrations below 10^-7 M

| Molecule | displacement of 25-OHD3 at lower concentrations |
| --- | --- |
| C=C1/C(=C\C=C2/CCC[C@]3(C)[C@@H]([C@H](C)CCC(O)C(C)(C)O)CC[C@@H]23)C[C@@H](O)CC1O (stereo partly shown) [1,24,25-(OH)3D3] | no apparent displacement at lower concentrations |

Same assay, conditions: crude post-nuclear / 100,000×g supernatant extracts of B95-8 cells

| Molecule | competition of non-vitamin D steroids and bioactive lipids with 25-OHD3 for binding |
| --- | --- |
| C[C@]12CCC(=O)C[C@@H]1CC[C@@H]1[C@@H]2CC[C@]2(C)[C@@H](O)CC[C@@H]12 [5-Dihydroxytestosterone] | none of the six steroid precursor molecules, glucocorticoids, mineralocorticoids, or the major intracellular metabolite of testosterone, 5-dihydrotestosterone, were capable ligands |
| C[C@]12CC[C@@H]3c4ccc(O)cc4CC[C@H]3[C@@H]1CC[C@@H]2O [17β-Estradiol] | competitively displaces [^3 H]25-OHD3 |
| C[C@H](CCCC(C)(C)O)[C@H]1CC[C@H]2[C@@H]3CC=C4C[C@@H](O)CC[C@]4(C)[C@H]3CC[C@]12C [25-Hydroxycholesterol] | none of these evaluated compounds were able to compete with 25-OHD3 for binding |
| CC(=O)[C@H]1CC[C@H]2[C@@H]3CCC4=CC(=O)CC[C@]4(C)[C@H]3CC[C@]12C [Progesterone] | competitively displaces [^3 H]25-OHD3 |
| C[C@]12CC[C@H]3[C@@H](CCC4=CC(=O)CC[C@@]43C)[C@@H]1CC[C@@H]2O [Testosterone] | competitively displaces [^3 H]25-OHD3 |

Same assay, conditions: relative ability of maximally effective concentration to displace [3H]25-OHD3; 25-OHD3 assigned 100; unfractionated 100,000×g supernatant of B95-8 cells

| Molecule | RBI (Relative Binding Index) |
| --- | --- |
| C=C1/C(=C\C=C2/CCC[C@]3(C)[C@@H]([C@H](C)CCC(O)C(C)(C)O)CC[C@@H]23)C[C@@H](O)CC1O (stereo partly shown) [1,24,25-(OH)3D3] | 36 |
| C=C1/C(=C\C=C2/CCC[C@]3(C)[C@@H]([C@H](C)/C=C/[C@H](C)C(C)(C)O)CC[C@@H]23)C[C@@H](O)C[C@@H]1O [1,25-(OH)2D2, 1,25-dihydroxyvitamin D2] | 35 |
| C=C1/C(=C\C=C2/CCC[C@]3(C)[C@@H]([C@H](C)CCCC(C)C)CC[C@@H]23)C[C@@H](O)C[C@@H]1O [1-OHD3] | 0 |
| C[C@]12CCC(=O)C[C@@H]1CC[C@@H]1[C@@H]2CC[C@]2(C)[C@@H](O)CC[C@@H]12 [5-Dihydroxytestosterone] | 0 |
| CC(C)CCC[C@@H](C)[C@H]1CC[C@H]2C3=CC=C4C[C@@H](O)CC[C@]4(C)[C@H]3CC[C@]12C [7-Dehydrocholesterol] | 0 |
| CC1=C(/C=C/C(C)=C\C=C\C(C)=C\C(=O)O)C(C)(C)CCC1 [9-cis Retinoic acid] | 0 |
| C[C@]12CC[C@@H]3c4ccc(O)cc4CC[C@H]3[C@@H]1CC[C@@H]2O [17β-Estradiol] | 33 |
| C=C1CC[C@H](O)C/C1=C/C=C1\CCC[C@]2(C)[C@@H]([C@H](C)CCC(O)C(C)(C)O)CC[C@@H]12 (stereo partly shown) [24,25-(OH)2D3] | 72 |
| C=C1CC[C@H](O)C/C1=C/C=C1\CCC[C@]2(C)[C@@H]([C@H](C)CCCC(C)(O)CO)CC[C@@H]12 (stereo partly shown) [25,26-(OH)2D3] | 70 |
| C[C@H](CCCC(C)(C)O)[C@H]1CC[C@H]2[C@@H]3CC=C4C[C@@H](O)CC[C@]4(C)[C@H]3CC[C@]12C [25-Hydroxycholesterol] | 0 |
| C=C1CC[C@H](O)C/C1=C/C=C1\CCC[C@]2(C)[C@@H]([C@H](C)/C=C/[C@H](C)C(C)(C)O)CC[C@@H]12 [25-OHD2, 25-hydroxy vitamin D2] | 100 |
| C[C@]12CCC(=O)C=C1CC[C@@H]1[C@@H]2[C@@H](O)C[C@]2(C=O)[C@@H](C(=O)CO)CC[C@@H]12 [Aldosterone] | 0 |
| CC1=C(/C=C/C(C)=C/C=C/C(C)=C/C(=O)O)C(C)(C)CCC1 [All-trans Retinoic acid] | 0 |
| C[C@]12CCC(=O)C=C1CC[C@@H]1[C@@H]2CC[C@]2(C)C(=O)CC[C@@H]12 [Androstendione] | 0 |
| CCCCC/C=C\C/C=C\C/C=C\C/C=C\CCCC(=O)O [Arachidonic acid] | 0 |
| C=C1/C(=C\C=C2/CCC[C@]3(C)[C@@H]([C@H](C)/C=C/[C@@H](O)C4CC4)CC[C@@H]23)C[C@@H](O)C[C@@H]1O [Calcipotriol (MC903), Calcipotriol] | 0 |
| CC(C)CCC[C@@H](C)[C@H]1CC[C@H]2[C@@H]3CC=C4C[C@@H](O)CC[C@]4(C)[C@H]3CC[C@]12C [Cholesterol] | 0 |
| C[C@]12C[C@H](O)[C@H]3[C@@H](CCC4=CC(=O)CC[C@@]43C)[C@@H]1CC[C@@H]2C(=O)CO [Corticosterone (B), Corticosterone] | 0 |
| C[C@]12CCC(=O)C=C1CC[C@@H]1[C@@H]2C(=O)C[C@@]2(C)[C@H]1CC[C@]2(O)C(=O)CO [Cortisone] | 0 |

| Molecule | RBI (Relative Binding Index) |
| --- | --- |
| C[C@]12CC[C@H](OS(=O)(=O)O)CC1=CC[C@@H]1[C@@H]2CC[C@]2(C)C(=O)CC[C@@H]12 [DHEAS] | 0 |
| C[C@]12CC[C@H](O)CC1=CC[C@@H]1[C@@H]2CC[C@]2(C)C(=O)CC[C@@H]12 [DHEA] | 0 |
| C[C@]12CC[C@H]3[C@@H](CCC4=CC(=O)CC[C@@]43C)[C@@H]1CC[C@@H]2C(=O)CO [Deoxycorticosterone (DOC), Deoxycorticosterone] | 0 |
| C[C@@H]1C[C@H]2[C@@H]3CCC4=CC(=O)C=C[C@]4(C)[C@@]3(F)[C@@H](O)C[C@]2(C)[C@@]1(O)C(=O)CO [Dexamethasone] | 0 |
| CC(C)[C@@H](C)/C=C/[C@@H](C)[C@H]1CC[C@H]2/C(=C/C=C3\C[C@@H](O)CC[C@@H]3C)CCC[C@]12C [Dihydrotachysterol] | 0 |
| C=C1/C(=C\C=C2/CCC[C@]3(C)[C@@H]([C@H](C)/C=C/C=C/C(O)(CC)CC)CC[C@@H]23)C[C@@H](O)C[C@@H]1O [EB1089] | 0 |
| C[C@]12CCC(=O)C=C1CC[C@@H]1[C@@H]2[C@@H](O)C[C@@]2(C)[C@H]1CC[C@]2(O)C(=O)CO [Hydrocortisone] | 0 |
| C=C1/C(=C\C=C2/CCC[C@]3(C)[C@@H]([C@@H](C)OCCCC(O)(CC)CC)CC[C@@H]23)C[C@@H](O)C[C@@H]1O [KH1060] | 0 |
| CCCCC[C@H](O)/C=C/[C@H]1[C@H](O)CC(=O)[C@@H]1C/C=C\CCCC(=O)O [PGE2] | 0 |
| CCCCC[C@H](O)/C=C/[C@@H]1[C@@H](C/C=C\CCCC(=O)O)[C@@H](O)C[C@H]1O [PGF2alpha] | 0 |
| CC(=O)[C@H]1CC[C@H]2[C@@H]3CC=C4C[C@@H](O)CC[C@]4(C)[C@H]3CC[C@]12C [Pregnenolone] | 0 |
| CC(=O)[C@H]1CC[C@H]2[C@@H]3CCC4=CC(=O)CC[C@]4(C)[C@H]3CC[C@]12C [Progesterone] | 19 |
| CC#C[C@]1(O)CC[C@H]2[C@@H]3CCC4=CC(=O)CCC4=C3[C@@H](c3ccc(N(C)C)cc3)C[C@@]21C [RU486] | 0 |
| CC/C(=C(\c1ccccc1)c1ccc(OCCN(C)C)cc1)c1ccccc1 [Tamoxifen] | 0 |
| C[C@]12CC[C@H]3[C@@H](CCC4=CC(=O)CC[C@@]43C)[C@@H]1CC[C@@H]2O [Testosterone] | 30 |
| C=C1CC[C@H](O)C/C1=C/C=C1\CCC[C@]2(C)[C@@H]([C@H](C)/C=C/[C@H](C)C(C)C)CC[C@@H]12 [Vitamin D2, ergocalciferol] | 0 |
| C=C1CC[C@H](O)C/C1=C/C=C1\CCC[C@]2(C)[C@@H]([C@H](C)CCCC(C)C)CC[C@@H]12 [Vltamin D3, cholecalciferol] | 0 |
| Androstendiol | 0 |

Same assay, conditions: unfractionated B95-8 extracts; 4 nM [3H]25-OHD3

| Molecule | binding / displacement of [3H]25-OHD3 by vitamin D2 metabolites and synthetic analogues (FIG. 2B) |
| --- | --- |
| C=C1/C(=C\C=C2/CCC[C@]3(C)[C@@H]([C@H](C)/C=C/[C@H](C)C(C)(C)O)CC[C@@H]23)C[C@@H](O)C[C@@H]1O [1,25-(OH)2D2, 1,25-dihydroxyvitamin D2] | bound in unfractionated extracts equivalently to 25-OHD3 and 1,25-(OH)^2 D3 |
| C=C1CC[C@H](O)C/C1=C/C=C1\CCC[C@]2(C)[C@@H]([C@H](C)/C=C/[C@H](C)C(C)(C)O)CC[C@@H]12 [25-OHD2, 25-hydroxy vitamin D2] | bound in unfractionated extracts equivalently to 25-OHD3 and 1,25-(OH)^2 D3 |
| C=C1/C(=C\C=C2/CCC[C@]3(C)[C@@H]([C@H](C)/C=C/[C@@H](O)C4CC4)CC[C@@H]23)C[C@@H](O)C[C@@H]1O [Calcipotriol (MC903), Calcipotriol] | none of the C-1-hydroxylated nonhypercalcemic analogues MC903, EB1089 and KH1060 (FIG. 2A) were able to displace [^3 H]25-OHD3 binding |
| C=C1/C(=C\C=C2/CCC[C@]3(C)[C@@H]([C@H](C)/C=C/C=C/C(O)(CC)CC)CC[C@@H]23)C[C@@H](O)C[C@@H]1O [EB1089] | none of the C-1-hydroxylated nonhypercalcemic analogues MC903, EB1089 and KH1060 (FIG. 2A) were able to displace [^3 H]25-OHD3 binding |
| C=C1/C(=C\C=C2/CCC[C@]3(C)[C@@H]([C@@H](C)OCCCC(O)(CC)CC)CC[C@@H]23)C[C@@H](O)C[C@@H]1O [KH1060] | none of the C-1-hydroxylated nonhypercalcemic analogues MC903, EB1089 and KH1060 (FIG. 2A) were able to displace [^3 H]25-OHD3 binding |
